Patent publication US20230074545A1, “TREATMENT OF CANCER WITH CDK12/13 INHIBITORS” (Kinnate Biopharma Inc., priority 2019, published 2023)

What was measured:
Experiment in all cases: Radiometric kinase panel
Assay type in all cases: biochemical
ABL2 = biological target: T1, ABL2 (Homo sapiens, UniProt P42684)
T1 construct: purchased ProQinase GmbH (Reaction Biology)
Protocol: (§1) The compounds 1-5 (see Table 1) were assayed for kinase activity at ProQinase (ProQinase GmbH, Reaction Biology; Freiburg, Germany) using their commercially available radiometric kinase assay services. Briefly, the compounds were provided as solids and were dissolved to 1×10^−03 M/100% DMSO stock solutions on the day of assay. All protein kinases were provided by ProQinase and were expressed in Sf9 insect cells or in E. coli as recombinant GST-fusion proteins or His-tagged proteins, either as full-length or enzymatically active fragments. All kinases were produced from human cDNAs and purified by either GSH-affinity chromatography or immobilized metal. The purity of the protein kinases was examined by SDS-PAGE/Coomassie staining, the identity was checked by mass spectroscopy. A radiometric protein kinase assay (^33PanQinase® Activity Assay) was used for measuring the kinase activity of the protein kinase. All kinase assays were performed in 96-well FlashPlates™ from PerkinElmer (Boston, Mass., USA) in a 50 microliter reaction volume. The reaction cocktail was pipetted in four steps in the following order: 1) 25 microliter of assay buffer (standard buffer/[gamma-^33P]-ATP); 2) 10 microliter of ATP solution (in H2O); 3) 5 microliter of test compound (in 10% DMSO); 4) 10 microliter of enzyme/substrate mixture.
(§2) Compound 4 was analyzed for selectivity against a panel of other kinases at ProQinase using their commercially available radiometric kinase assay services and the methods described in Example 1.

AKT2 = biological target: T2, AKT2 (Homo sapiens, UniProt P31751)
T2 construct: either as full-length or enzymatically active fragments; purchased ProQinase GmbH (Reaction Biology); host or cells: Sf9 insect cells or E. coli (not specified per kinase)
Protocol: as §1, §2

AuroraC = biological target: T3, AuroraC (Homo sapiens, UniProt Q9UQB9)
T3 construct: either as full-length or enzymatically active fragments; purchased ProQinase GmbH (Reaction Biology)
Protocol: as §1, §2

BMX = biological target: T4, BMX (Homo sapiens, UniProt P51813)
T4 construct: either as full-length or enzymatically active fragments; purchased ProQinase GmbH (Reaction Biology)
Protocol: as §1, §2

CAMK4 = biological target: T5, CAMK4 (Homo sapiens, UniProt Q16566)
T5 construct: either as full-length or enzymatically active fragments; purchased ProQinase GmbH (Reaction Biology)
Protocol: as §1, §2

CDK16/CycY = biological target: T6, CDK16/CycY (Homo sapiens, UniProt Q00536)
T6 construct: either as full-length or enzymatically active fragments; purchased ProQinase GmbH (Reaction Biology)
Protocol: as §1, §2

CDK2/CycA2 = biological target: T7, CDK2/CycA2 (Homo sapiens, UniProt P24941)
T7 construct: either as full-length or enzymatically active fragments; purchased ProQinase GmbH (Reaction Biology); host or cells: Sf9 insect cells or E. coli
Protocol: as §1, §2

CDK2/CycE1 = biological target: T8, CDK2/CycE1 (Homo sapiens, UniProt P24941)
T8 construct: either as full-length or enzymatically active fragments; purchased ProQinase GmbH (Reaction Biology); host or cells: Sf9 insect cells or E. coli (not specified per kinase)
Protocol: as §1, §2

CDK3/CycE1 = biological target: T9, CDK3/CycE1 (Homo sapiens, UniProt Q00526)
T9 construct: either as full-length or enzymatically active fragments; purchased ProQinase GmbH (Reaction Biology)
Protocol: as §1, §2

CDK4/CycD2 = biological target: T10, CDK4/CycD2 (Homo sapiens, UniProt P11802)
T10 construct: purchased ProQinase GmbH (Reaction Biology)
Protocol: as §1, §2

CHK2 = biological target: T11, CHK2 (Homo sapiens, UniProt O96017)
T11 construct: either as full-length or enzymatically active fragments; purchased ProQinase GmbH (Reaction Biology)
Protocol: as §1, §2

CLK2 = biological target: T12, CLK2 (Homo sapiens, UniProt P49760)
T12 construct: purchased ProQinase GmbH (Reaction Biology)
Protocol: as §1, §2

DYRK1B = biological target: T13, DYRK1B (Homo sapiens, UniProt Q9Y463)
T13 construct: either as full-length or enzymatically active fragments; purchased ProQinase GmbH (Reaction Biology)
Protocol: as §1, §2

EPHB4 = biological target: T14, EPHB4 (Homo sapiens, UniProt P54760)
T14 construct: either as full-length or enzymatically active fragments; purchased ProQinase GmbH (Reaction Biology)
Protocol: as §1, §2

FER = biological target: T15, FER (Homo sapiens, UniProt P16591)
T15 construct: either as full-length or enzymatically active fragments; purchased ProQinase GmbH (Reaction Biology); host or cells: Sf9 insect cells or E. coli
Protocol: as §1, §2

GSK3alpha = biological target: T16, GSK3alpha (Homo sapiens, UniProt P49840)
T16 construct: either as full-length or enzymatically active fragments; purchased ProQinase GmbH (Reaction Biology)
Protocol: as §1, §2

JAK2 = biological target: T17, JAK2 (Homo sapiens, UniProt O60674)
T17 construct: either as full-length or enzymatically active fragments; purchased ProQinase GmbH (Reaction Biology)
Protocol: as §1, §2

JAK3 = biological target: T18, JAK3 (Homo sapiens, UniProt P52333)
T18 construct: purchased ProQinase GmbH (Reaction Biology)
Protocol: as §1, §2

MAPKAPK3 = biological target: T19, MAPKAPK3 (Homo sapiens, UniProt Q16644)
T19 construct: either as full-length or enzymatically active fragments; purchased ProQinase GmbH (Reaction Biology)
Protocol: as §1, §2

MEK5 = biological target: T20, MEK5 (Homo sapiens, UniProt Q13163)
T20 construct: either as full-length or enzymatically active fragments; purchased ProQinase GmbH (Reaction Biology)
Protocol: as §1, §2

MST2 = biological target: T21, MST2 (Homo sapiens, UniProt Q13188)
T21 construct: purchased ProQinase GmbH (Reaction Biology)
Protocol: as §1, §2

NEK9 = biological target: T22, NEK9 (Homo sapiens, UniProt Q8TD19)
T22 construct: either as full-length or enzymatically active fragments; purchased ProQinase GmbH (Reaction Biology)
Protocol: as §1, §2

PAK1 = biological target: T23, PAK1 (Homo sapiens, UniProt Q13153)
T23 construct: either as full-length or enzymatically active fragments; purchased ProQinase GmbH (Reaction Biology)
Protocol: as §1, §2

PIM2 = biological target: T24, PIM2 (Homo sapiens, UniProt Q9P1W9)
T24 construct: either as full-length or enzymatically active fragments; purchased ProQinase GmbH (Reaction Biology)
Protocol: as §1, §2

PKCdelta = biological target: T25, PKCdelta (Homo sapiens, UniProt Q05655)
T25 construct: purchased ProQinase GmbH (Reaction Biology)
Protocol: as §1, §2

PYK2 = biological target: T26, PYK2 (Homo sapiens, UniProt Q14289)
T26 construct: either as full-length or enzymatically active fragments; purchased ProQinase GmbH (Reaction Biology)
Protocol: as §1, §2

STK23 = biological target: T27, STK23 (Homo sapiens, UniProt Q9UPE1)
T27 construct: either as full-length or enzymatically active fragments; purchased ProQinase GmbH (Reaction Biology)
Protocol: as §1, §2

TXK = biological target: T28, TXK (Homo sapiens, UniProt P42681)
T28 construct: either as full-length or enzymatically active fragments; purchased ProQinase GmbH (Reaction Biology)
Protocol: as §1, §2

TYRO3 = biological target: T29, TYRO3 (Homo sapiens, UniProt Q06418)
T29 construct: either as full-length or enzymatically active fragments; purchased ProQinase GmbH (Reaction Biology)
Protocol: as §1, §2

VRK1 = biological target: T30, VRK1 (Homo sapiens, UniProt Q99986)
T30 construct: either as full-length or enzymatically active fragments; purchased ProQinase GmbH (Reaction Biology)
Protocol: as §1, §2

WNK1 = biological target: T31, WNK1 (Homo sapiens, UniProt Q9H4A3)
T31 construct: either as full-length or enzymatically active fragments; purchased ProQinase GmbH (Reaction Biology)
Protocol: as §1, §2

T19 sequence (Q16644 whole entry, the tested form may be a part): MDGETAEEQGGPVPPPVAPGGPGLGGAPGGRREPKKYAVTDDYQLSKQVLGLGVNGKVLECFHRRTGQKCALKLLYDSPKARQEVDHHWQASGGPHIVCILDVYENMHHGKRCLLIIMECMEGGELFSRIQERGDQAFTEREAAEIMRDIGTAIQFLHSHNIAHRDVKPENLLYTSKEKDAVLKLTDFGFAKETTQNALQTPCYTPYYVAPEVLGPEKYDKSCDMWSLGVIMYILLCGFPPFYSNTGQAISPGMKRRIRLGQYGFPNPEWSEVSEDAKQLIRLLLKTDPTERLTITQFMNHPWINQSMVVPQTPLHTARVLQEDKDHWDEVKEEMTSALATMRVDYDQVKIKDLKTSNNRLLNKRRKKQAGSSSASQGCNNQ
T15 sequence (P16591 whole entry, the tested form may be a part): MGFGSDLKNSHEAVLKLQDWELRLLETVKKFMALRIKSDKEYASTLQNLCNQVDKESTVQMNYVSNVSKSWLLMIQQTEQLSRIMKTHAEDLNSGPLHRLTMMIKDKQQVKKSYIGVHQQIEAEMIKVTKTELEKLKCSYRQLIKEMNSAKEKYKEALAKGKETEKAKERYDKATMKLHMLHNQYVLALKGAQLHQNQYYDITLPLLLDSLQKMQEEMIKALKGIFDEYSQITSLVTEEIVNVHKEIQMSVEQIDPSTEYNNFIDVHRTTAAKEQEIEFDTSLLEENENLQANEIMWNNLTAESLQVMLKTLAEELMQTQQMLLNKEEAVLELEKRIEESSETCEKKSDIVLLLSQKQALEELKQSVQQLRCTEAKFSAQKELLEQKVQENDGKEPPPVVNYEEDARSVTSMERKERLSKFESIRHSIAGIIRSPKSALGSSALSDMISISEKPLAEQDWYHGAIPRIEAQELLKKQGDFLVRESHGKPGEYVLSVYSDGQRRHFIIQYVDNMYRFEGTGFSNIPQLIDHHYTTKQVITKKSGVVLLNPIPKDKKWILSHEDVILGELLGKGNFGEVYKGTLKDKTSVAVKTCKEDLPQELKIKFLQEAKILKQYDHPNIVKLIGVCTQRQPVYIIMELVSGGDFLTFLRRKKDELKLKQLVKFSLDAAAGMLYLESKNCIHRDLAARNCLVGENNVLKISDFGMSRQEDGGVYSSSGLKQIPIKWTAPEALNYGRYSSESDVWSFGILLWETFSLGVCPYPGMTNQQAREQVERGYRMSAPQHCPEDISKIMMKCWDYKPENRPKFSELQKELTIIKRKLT
T29 sequence (Q06418 41-890): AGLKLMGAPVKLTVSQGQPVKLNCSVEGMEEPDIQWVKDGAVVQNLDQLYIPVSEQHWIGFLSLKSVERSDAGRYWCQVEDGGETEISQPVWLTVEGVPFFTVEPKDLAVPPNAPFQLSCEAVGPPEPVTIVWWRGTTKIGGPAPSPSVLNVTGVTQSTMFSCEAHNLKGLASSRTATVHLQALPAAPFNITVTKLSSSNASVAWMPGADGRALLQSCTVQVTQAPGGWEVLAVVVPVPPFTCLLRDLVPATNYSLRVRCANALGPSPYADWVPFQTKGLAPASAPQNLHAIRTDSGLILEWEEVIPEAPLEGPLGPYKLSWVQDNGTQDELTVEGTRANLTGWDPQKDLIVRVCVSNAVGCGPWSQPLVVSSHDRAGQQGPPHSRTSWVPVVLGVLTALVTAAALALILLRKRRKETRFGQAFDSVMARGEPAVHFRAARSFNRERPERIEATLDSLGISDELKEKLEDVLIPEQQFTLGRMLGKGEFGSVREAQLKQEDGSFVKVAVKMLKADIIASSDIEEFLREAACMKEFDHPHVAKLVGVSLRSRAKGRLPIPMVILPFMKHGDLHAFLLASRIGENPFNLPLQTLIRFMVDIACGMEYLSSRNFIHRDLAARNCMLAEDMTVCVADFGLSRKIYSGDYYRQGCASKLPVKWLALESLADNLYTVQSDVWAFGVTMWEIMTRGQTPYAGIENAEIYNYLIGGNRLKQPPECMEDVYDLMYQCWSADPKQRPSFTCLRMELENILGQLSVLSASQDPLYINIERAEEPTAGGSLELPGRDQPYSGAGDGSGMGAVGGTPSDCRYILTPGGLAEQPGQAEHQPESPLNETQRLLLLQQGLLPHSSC
T1 sequence (P42684 whole entry): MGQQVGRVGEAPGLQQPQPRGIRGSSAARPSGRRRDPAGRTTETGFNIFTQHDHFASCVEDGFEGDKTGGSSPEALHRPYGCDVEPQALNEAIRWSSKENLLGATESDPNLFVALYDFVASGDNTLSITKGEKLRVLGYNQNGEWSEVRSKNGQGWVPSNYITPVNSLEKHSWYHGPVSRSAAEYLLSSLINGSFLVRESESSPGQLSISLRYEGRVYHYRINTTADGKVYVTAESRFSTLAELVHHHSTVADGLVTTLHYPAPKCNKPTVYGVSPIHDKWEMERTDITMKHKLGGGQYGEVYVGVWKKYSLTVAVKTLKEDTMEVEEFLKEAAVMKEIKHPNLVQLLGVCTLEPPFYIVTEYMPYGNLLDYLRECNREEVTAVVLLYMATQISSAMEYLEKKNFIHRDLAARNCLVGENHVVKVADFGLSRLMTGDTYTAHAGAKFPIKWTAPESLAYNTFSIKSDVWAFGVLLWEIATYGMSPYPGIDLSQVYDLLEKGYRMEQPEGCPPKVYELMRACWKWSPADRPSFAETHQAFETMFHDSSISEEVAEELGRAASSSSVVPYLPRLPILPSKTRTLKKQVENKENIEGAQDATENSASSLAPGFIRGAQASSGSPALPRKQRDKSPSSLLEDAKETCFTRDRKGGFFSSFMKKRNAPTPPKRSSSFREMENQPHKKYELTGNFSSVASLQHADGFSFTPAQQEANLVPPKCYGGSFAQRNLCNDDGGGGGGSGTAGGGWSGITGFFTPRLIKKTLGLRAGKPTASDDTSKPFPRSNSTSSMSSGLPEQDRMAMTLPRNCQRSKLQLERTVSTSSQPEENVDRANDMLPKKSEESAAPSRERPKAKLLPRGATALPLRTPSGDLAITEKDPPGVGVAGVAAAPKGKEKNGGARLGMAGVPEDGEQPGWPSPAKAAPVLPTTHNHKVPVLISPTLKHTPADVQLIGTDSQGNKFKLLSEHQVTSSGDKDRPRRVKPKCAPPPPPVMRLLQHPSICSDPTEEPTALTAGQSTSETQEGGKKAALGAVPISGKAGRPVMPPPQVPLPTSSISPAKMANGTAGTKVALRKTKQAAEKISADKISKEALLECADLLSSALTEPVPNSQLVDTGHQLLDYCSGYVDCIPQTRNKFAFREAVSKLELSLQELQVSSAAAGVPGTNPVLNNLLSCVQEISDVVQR
T24 sequence (Q9P1W9 whole entry, the tested form may be a part): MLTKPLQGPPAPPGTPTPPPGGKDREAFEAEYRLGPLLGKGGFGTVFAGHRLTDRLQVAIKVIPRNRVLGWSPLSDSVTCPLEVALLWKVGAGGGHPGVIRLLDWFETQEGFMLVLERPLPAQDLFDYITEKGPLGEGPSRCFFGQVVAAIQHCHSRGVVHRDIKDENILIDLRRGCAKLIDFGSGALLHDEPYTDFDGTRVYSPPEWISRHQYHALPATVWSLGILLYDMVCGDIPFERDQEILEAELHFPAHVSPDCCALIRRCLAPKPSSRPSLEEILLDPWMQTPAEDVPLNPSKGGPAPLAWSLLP
T26 sequence (Q14289 whole entry, the tested form may be a part): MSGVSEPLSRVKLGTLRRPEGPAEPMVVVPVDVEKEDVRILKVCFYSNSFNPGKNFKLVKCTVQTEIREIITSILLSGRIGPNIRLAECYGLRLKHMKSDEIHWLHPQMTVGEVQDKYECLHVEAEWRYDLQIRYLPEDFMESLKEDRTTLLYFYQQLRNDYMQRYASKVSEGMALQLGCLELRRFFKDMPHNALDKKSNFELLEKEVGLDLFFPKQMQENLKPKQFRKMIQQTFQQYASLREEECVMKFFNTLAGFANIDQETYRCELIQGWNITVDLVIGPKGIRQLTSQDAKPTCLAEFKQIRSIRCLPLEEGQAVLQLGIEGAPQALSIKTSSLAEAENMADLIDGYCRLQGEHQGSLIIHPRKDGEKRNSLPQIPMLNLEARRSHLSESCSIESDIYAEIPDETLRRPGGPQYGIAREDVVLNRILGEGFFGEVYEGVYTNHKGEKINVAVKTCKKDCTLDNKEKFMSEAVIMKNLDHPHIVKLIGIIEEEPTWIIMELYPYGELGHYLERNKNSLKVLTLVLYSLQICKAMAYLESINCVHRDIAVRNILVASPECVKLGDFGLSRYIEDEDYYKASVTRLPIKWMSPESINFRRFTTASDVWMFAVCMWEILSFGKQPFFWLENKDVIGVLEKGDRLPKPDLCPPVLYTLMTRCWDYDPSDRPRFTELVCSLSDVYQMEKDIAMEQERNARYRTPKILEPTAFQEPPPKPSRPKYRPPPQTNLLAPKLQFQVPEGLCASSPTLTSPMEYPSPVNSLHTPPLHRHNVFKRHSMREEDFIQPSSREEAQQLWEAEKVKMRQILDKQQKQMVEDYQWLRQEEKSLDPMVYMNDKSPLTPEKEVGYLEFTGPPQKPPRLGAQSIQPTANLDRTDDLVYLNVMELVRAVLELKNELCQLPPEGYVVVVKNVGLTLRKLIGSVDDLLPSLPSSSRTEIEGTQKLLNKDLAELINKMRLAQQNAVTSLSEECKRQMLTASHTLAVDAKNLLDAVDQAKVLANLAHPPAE
T3 sequence (Q9UQB9 whole entry, the tested form may be a part): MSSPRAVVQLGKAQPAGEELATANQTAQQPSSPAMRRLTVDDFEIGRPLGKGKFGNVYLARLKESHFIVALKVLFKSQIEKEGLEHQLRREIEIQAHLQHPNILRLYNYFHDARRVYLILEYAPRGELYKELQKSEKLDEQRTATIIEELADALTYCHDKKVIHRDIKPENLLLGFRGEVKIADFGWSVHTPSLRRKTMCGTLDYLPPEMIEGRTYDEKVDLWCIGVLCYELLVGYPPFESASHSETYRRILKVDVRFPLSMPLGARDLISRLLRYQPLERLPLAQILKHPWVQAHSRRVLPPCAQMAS

In the case of `C=CC(=O)Nc1ccc(C(=O)N2CC[C@@H](Nc3ncc(C#N)cn3)C2)cc1` [Compound 4, (R)-N-(4-(3-((5-cyanopyrimidin-2-yl)amino)pyrrolidine-1-carbonyl)phenyl)acrylamide], the inhibition at 1 µM (ABL2) is reported as -1%, the inhibition at 1 µM (AKT2) is reported as 11% and the inhibition at 1 µM (AuroraC) is reported as 16%. For the same molecule, the inhibition at 1 µM (BMX) was -4%, the inhibition at 1 µM (CAMK4) was 8% and the inhibition at 1 µM (CDK16/CycY) was 17%. For the same molecule, the inhibition at 1 µM (CDK2/CycA2) was 15%, the inhibition at 1 µM (CDK2/CycE1) was 9% and the inhibition at 1 µM (CDK3/CycE1) was 25%. It also gave an inhibition at 1 µM (CDK4/CycD2) of 0%, an inhibition at 1 µM (CHK2) of 5% and an inhibition at 1 µM (CLK2) of -2%. For the same molecule, the inhibition at 1 µM (DYRK1B) was 3%, the inhibition at 1 µM (EPHB4) was -4% and the inhibition at 1 µM (FER) was 15%. For the same molecule, the inhibition at 1 µM (GSK3alpha) was 6%, the inhibition at 1 µM (JAK2) was -6% and the inhibition at 1 µM (JAK3) was -1%. The inhibition at 1 µM (MAPKAPK3) was 8%, the inhibition at 1 µM (MEK5) was 23% and the inhibition at 1 µM (MST2) was 0%. The inhibition at 1 µM (NEK9) was -5%, the inhibition at 1 µM (PAK1) was -6% and the inhibition at 1 µM (PIM2) was 3%. For the same molecule, the inhibition at 1 µM (PKCdelta) was -2%, the inhibition at 1 µM (PYK2) was 4% and the inhibition at 1 µM (STK23) was 7%. The inhibition at 1 µM (TXK) was 6%, the inhibition at 1 µM (TYRO3) was -3% and the inhibition at 1 µM (VRK1) was 2%. The inhibition at 1 µM (WNK1) was 17%.
